# Measurements published in patent US6767918B2, “N-(aryl/heteroarylacetyl) amino acid esters, pharmaceutical compositions comprising same, and methods for inhibiting β-amyloid peptide release and/or its synthesis by use of such compounds” (Athena Neurosciences, Inc., priority 1996, dated 2004).
row,SMILES,melting point [°C]
1,"CC(C)COC(=O)[C@H](C)NC(=O)Cc1ccc(Cl)cc1 [Example 4, N-[(4-chlorophenyl)acetyl]-L-alanine iso-butyl ester]",111 to 113
2,"CCOC(=O)[C@H](C)NC(=O)Cc1cc(F)cc(F)c1 [Example 64, N-[(3,5difluorophenyl)acetyl]alanine ethyl ester]",93 to 95
3,"CC(C)COC(=O)[C@H](C)NC(=O)Cc1cccc2ccccc12 [Example 8, N-[(1-naphthyl)acetyl]-L-alanine iso-butyl ester]",69 to 73
4,"CC(C)COC(=O)[C@H](C)NC(=O)Cc1ccccc1 [Example 13, N-(phenylacetyl)-L-alanine iso-butyl ester]",45 to 47
5,"CC(C)COC(=O)C(C)NC(=O)Cc1ccncc1 (racemic) [Example 12, N-[(4-pyridyl)acetyl]-D,L-alanine iso-butyl ester]",64 to 66
6,"CC(C)COC(=O)[C@H](C)NC(=O)CC1CCCCC1 [Example 70, N-(cyclohexylacetyl)-L-alanine iso-butyl ester]",92 to 93
7,"CC(C)COC(=O)[C@H](C)NC(=O)CC1=CCCCC1 [Example 72, N-[(cyclohex-1-enyl)acetyl]-L-alanine iso-butyl ester]",49 to 51
8,"CC(C)COC(=O)[C@H](C)NC(=O)CC1CCCC1 [Example 71, N-(cyclopentylacetyl)-L-alanine iso-butyl ester]",62 to 64
9,"CC(C)COC(=O)C(C)NC(=O)Cc1cccnc1 (racemic) [Example 7, N-[(3-pyridyl)acetyl]-D,L-alanine iso-butyl ester]",62 to 64
10,"CC(C)COC(=O)[C@H](C)NC(=O)Cc1ccc(Cl)c(Cl)c1 [Example 5, N-[(3,4-dichlorophenyl)acetyl]-L-alanine iso-butyl ester]",81 to 83
11,"CC(C)COC(=O)[C@H](C)NC(=O)Cc1ccc2ccccc2c1 [Example 9, N-[(2-naphthyl)acetyl]-L-alanine iso-butyl ester]",128 to 129
12,"Cc1ccc(CC(=O)NC(C)C(=O)OCC(C)C)cc1 (racemic) [Example 6, N-[(4-methylphenyl)acetyl]-D,L-alanine iso-butyl ester]",102 to 104
